Several values for one entry are separate records, joined by “and”; a condition that tells them apart may be missing. Identical values can stand only once. Residues, ends and D or L forms follow the SMILES beside them.

Results on seven compounds are retold here after paper PMC3946342, “Evaluating Molecular Mechanism of Hypotensive Peptides Interactions with Renin and Angiotensin Converting Enzyme” (PLoS ONE, 2014).

Experiment [1] has as its target T1, renin (Homo sapiens, UniProt P00797).
T1 construct: purchased Cayman Chemicals 10006217
T1 sequence (P00797 67-406): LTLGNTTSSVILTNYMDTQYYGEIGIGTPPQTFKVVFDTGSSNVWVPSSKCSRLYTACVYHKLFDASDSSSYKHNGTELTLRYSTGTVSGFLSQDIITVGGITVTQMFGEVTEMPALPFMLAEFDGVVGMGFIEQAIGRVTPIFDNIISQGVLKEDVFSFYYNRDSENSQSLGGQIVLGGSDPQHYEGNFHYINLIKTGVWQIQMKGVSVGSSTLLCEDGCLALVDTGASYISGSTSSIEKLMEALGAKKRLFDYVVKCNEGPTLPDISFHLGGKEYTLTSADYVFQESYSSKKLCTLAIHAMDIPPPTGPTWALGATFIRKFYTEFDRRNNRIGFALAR
The experiment in a line: Intrinsic fluorescence emission of renin with peptides. The class given is binding. On the procedure: Fluorescence emission spectra were obtained using the method of Li et al.. Briefly, 25 µL of 1 U/mL ACE (prepared in 50 mM Tris–HCl buffer, pH 7.5, containing 300 mM NaCl) or 25 µL of 250 µg/mL renin (prepared in 50 mM Tris–HCl buffer, pH 8.0, containing 100 mM NaCl) was mixed with 50 µL of peptide solution and 25 µL of the appropriate buffer to yield a 100 µL assay solution. Emission spectra were recorded at 25°C using a micro quartz cell (100 µL capacity) on a JASCO FP-6300 spectrofluorimeter (JASCO, Tokyo, Japan). ACE or renin assay solutions were excited at 280 nm and emission recorded from 290 to 450 nm. Emission spectrum of the respective buffer, peptides and enzymes was subtracted from the emission spectrum of each assay solution.

For experiment [2], the target named is T1, renin. The experiment in a line: Far-UV circular dichroism of renin-peptide complex. To be noted: for Unordered / α-helix / β-sheet / β-turn: renin. On the procedure: (§1) Far-UV CD spectra were obtained using a JASCO J-815 spectropolarimeter (JASCO, Tokyo, Japan) under constant nitrogen flush according to the method of Omoni and Aluko [11]. A 0.5 mm pathlength quartz cell was used for the far UV (190–240 nm) measurements and each final spectrum was the average of three consecutive scans with simultaneous subtraction of the respective buffer, peptides and enzymes spectrum. For determining the peptide-enzyme interaction spectra, 150 µL of 1 U/mL ACE (prepared in 50 mM Tris–HCl buffer, pH 7.5, containing 300 mM NaCl) or 150 µL of 250 µg/mL renin (prepared in 50 mM Tris–HCl buffer, pH 8.0, containing 100 mM NaCl) was mixed with 50 µL of a peptide solution. The far-UV CD spectra in the 200–240 nm range were analyzed for secondary structure fractions using the online DICHROWEB procedure.

Experiment [3] concerns renin. The arrangement: method as in earlier work. As to conditions: previously determined ref 8; read-out: IC50 for renin inhibition; cited from earlier work.
Experiment [4] concerns the target T1, renin. Put plainly: Kinetics of renin inhibition (Lineweaver-Burk). The class given is biochemical. To be noted: for Mode of renin inhibition: double reciprocal plot; for K′m / V′max / Ki: renin; for Ki: secondary plot of Lineweaver-Burk slopes, read-out: Ki (enzyme-inhibitor dissociation constant). On the procedure:
(§2) Kinetics of ACE and renin inhibition was determined using a previously described method. For ACE inhibition, the substrate (FAPGG) concentrations were 0.0625, 0.125, 0.25 and 0.5 mM, while renin substrate concentrations were 1.25, 2.5, 5 and 10 µM. Peptide concentrations used during the assays are shown in Tables 1 and 2 for the kinetics of ACE and renin inhibition, respectively. The modes of ACE and renin inhibition were determined from Lineweaver-Burk plots while inhibition parameters (Vmax and Km) were calculated, respectively, as the Y and X-axis intercepts of the primary plot. Ki was calculated as the X-axis intercept of the line obtained from a secondary plot of Lineweaver-Burk line slopes versus peptide concentrations.

For experiment [5], the target named is T2, Rabbit lung ACE (Oryctolagus cuniculus, UniProt P12822).
T2 construct: Rabbit lung ACE (A6778, 98% purity); purchased Sigma-Aldrich A6778; host or cells: rabbit lung (tissue-derived)
T2 sequence (P12822 34-1310): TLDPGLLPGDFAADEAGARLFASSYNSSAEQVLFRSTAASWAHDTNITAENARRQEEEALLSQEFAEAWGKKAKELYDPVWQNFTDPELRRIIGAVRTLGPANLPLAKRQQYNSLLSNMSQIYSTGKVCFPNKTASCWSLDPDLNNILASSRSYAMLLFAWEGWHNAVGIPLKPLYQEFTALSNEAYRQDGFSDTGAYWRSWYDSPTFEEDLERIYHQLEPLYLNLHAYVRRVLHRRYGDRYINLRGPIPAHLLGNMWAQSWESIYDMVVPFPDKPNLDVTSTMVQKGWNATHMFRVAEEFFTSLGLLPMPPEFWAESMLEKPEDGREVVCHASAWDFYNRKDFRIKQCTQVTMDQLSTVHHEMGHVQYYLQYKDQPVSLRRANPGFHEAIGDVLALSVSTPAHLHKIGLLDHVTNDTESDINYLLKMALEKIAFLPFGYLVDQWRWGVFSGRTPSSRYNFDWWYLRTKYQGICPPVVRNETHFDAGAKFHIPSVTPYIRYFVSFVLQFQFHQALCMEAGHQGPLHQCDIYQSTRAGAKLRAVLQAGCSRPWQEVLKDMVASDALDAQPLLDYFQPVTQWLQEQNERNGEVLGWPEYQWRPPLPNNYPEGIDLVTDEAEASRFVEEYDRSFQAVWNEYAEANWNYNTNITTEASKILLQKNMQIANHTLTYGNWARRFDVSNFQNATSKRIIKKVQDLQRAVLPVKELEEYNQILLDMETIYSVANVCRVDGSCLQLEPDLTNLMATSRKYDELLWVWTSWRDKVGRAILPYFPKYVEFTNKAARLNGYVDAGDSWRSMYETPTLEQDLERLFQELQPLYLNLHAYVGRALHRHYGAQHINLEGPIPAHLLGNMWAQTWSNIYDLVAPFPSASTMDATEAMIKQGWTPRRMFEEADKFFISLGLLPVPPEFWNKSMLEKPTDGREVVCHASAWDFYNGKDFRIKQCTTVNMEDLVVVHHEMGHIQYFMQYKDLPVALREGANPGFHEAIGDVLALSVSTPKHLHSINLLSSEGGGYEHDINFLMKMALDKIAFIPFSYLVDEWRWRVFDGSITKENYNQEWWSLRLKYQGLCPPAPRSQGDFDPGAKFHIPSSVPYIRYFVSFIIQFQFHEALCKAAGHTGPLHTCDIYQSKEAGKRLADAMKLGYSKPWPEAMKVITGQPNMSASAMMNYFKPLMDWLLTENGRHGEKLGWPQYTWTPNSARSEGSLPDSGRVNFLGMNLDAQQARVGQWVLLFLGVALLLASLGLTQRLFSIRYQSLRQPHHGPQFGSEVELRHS
The experiment in a line: Kinetics of ACE inhibition (Lineweaver-Burk, FAPGG substrate). The experiment is classed as biochemical. On the procedure:
as §2

Experiment [6] concerns ACE. More on the design: method as in earlier work. As to conditions: previously determined ref 8; read-out: IC50 for ACE inhibition; cited from earlier work.
Experiment [7] addresses T3, ACE (Oryctolagus cuniculus, UniProt P12822).
T3 construct: Rabbit lung ACE (A6778, 98% purity); purchased Sigma-Aldrich A6778; host or cells: rabbit lung (tissue-derived)
T3 sequence (P12822 34-1310): T2 sequence (P12822 34-1310)
The experiment in a line: Far-UV circular dichroism of ACE-peptide complex. More on the design: species or system Rabbit. On the procedure:
as §1

In experiment [8] the test system is ACE. To be noted: cited from earlier work.

Consider `CC(C)C[C@H](N)C(=O)N[C@@H](Cc1ccc(O)cc1)C(=O)O` [LY, Leu-Tyr], for which the “λmax of renin emission” value in experiment [1] (0.170 mM peptide) was found to be 326 nm. Also, in experiment [2] (peptide 12.5 µg/mL), the Unordered is recorded as 30.37±0.23^F %, the α-helix is 4.63±0.12^B %, the β-sheet is 44.41±0.61^B % and the β-turn is 19.41±0.17^B %. For the same compound, in experiment [2] (peptide 25 µg/mL), the Unordered was 74.87% and 74.87±0.31^B %; the α-helix is 2.63±0.32^C %; the β-sheet is on record as 4.33±0.32^E %; the β-turn is 19.73±1.45^B %. Moreover, the IC50 in experiment [3] was 1.87 mM. In experiment [4], the “Mode of renin inhibition” value is recorded as “uncompetitive” and the Ki worked out at 2.24 mM. Besides, in experiment [4] (LY 0.8493 mM), the “K′m” value worked out at 2.45 µM and the “V′max” value is reported as 17.74 FI/min. In addition, in experiment [4] (LY 1.6986 mM), the “K′m” value amounted to 3.11 µM and the “V′max” value was 17.63 FI/min.
For the compound `CC(C)C[C@H](NC(=O)[C@H](C)NC(=O)[C@@H](N)CCCNC(=N)N)C(=O)N1CCC[C@H]1C(=O)O` [RALP, Arg-Ala-Leu-Pro] (H-RALP-OH), the Ki came out at 104 µM in experiment [5] (ACE, secondary plot of Lineweaver-Burk slopes, read-out: Ki (enzyme-inhibitor dissociation constant)) and 0.285 mM in experiment [4].
As for `C[C@@H](O)[C@H](N)C(=O)N[C@@H](Cc1ccccc1)C(=O)O` [TF, Thr-Phe] (H-Thr-Phe-OH; N-terminus and C-terminus assumed), the “λmax of renin emission” value in experiment [1] (0.047 mM peptide, 328.5 nm without peptide) turned out to be 326 nm; in experiment [1] (0.094 mM peptide, 328.5 nm without peptide), 327 nm. Moreover, the “Decrease in FI” value in experiment [1] (renin paragraph (printed ACE FI), LY at 0.170 mM, concentration for TF, RALP not given) is listed as 47%. The IC50 in experiment [6] was 810 µM; in experiment [3], 3.06 mM. Besides, the “Factor of increase of unordered fraction in renin” value in experiment [2] (0.094 mM peptide) is 2.25. For the same compound, the “Factor of reduction of β-sheet fraction in renin” value in experiment [2] (0.094 mM peptide) is recorded as ~6. Besides, the Unordered in experiment [2] (peptide 12.5 µg/mL) is 28.91±0.25^G %; in experiment [2] (peptide 25 µg/mL) it was 72.25±0.21^C %; in experiment [7] (peptide 12.5 µg/mL) it was 22.31±2.25^E %; in experiment [7] (peptide 25 µg/mL) it was 39.9±1.56^B %. Also, the α-helix in experiment [2] (peptide 12.5 µg/mL) is on record as 2.91±0.26^C %; in experiment [2] (peptide 25 µg/mL), 0.95±0.07^D %; in experiment [7] (peptide 12.5 µg/mL), 16.55±0.49^B %; in experiment [7] (peptide 25 µg/mL), 13.43±0.72^C %. In addition, the β-sheet is 46.97±0.31^A % in experiment [2] (peptide 12.5 µg/mL); 7.91±0.85^D % in experiment [2] (peptide 25 µg/mL); 41.67±2.17% and 41.67±2.17^A % in experiment [7] (peptide 12.5 µg/mL); 29.17±0.86% and 29.17±0.86^B % in experiment [7] (peptide 25 µg/mL). In addition, the β-turn in experiment [2] (peptide 12.5 µg/mL) is listed as 21.37±0.06^A %; in experiment [2] (peptide 25 µg/mL), 18.95±0.21^B %; in experiment [7] (peptide 12.5 µg/mL), 16.97±0.31^C %; in experiment [7] (peptide 25 µg/mL) it was 17.33±0.64^C %. Further, the “K′m” value is on record as 1.0088 mM in experiment [5] (ACE, TF 0.1887 mM); 0.5546 mM in experiment [5] (ACE, TF 0.7510 mM); 4.78 µM in experiment [4] (TF 0.9387 mM); 4.41 µM in experiment [4] (TF 3.7551 mM). Besides, the “V′max” value in experiment [5] (ACE, TF 0.1887 mM) was 0.0185 ΔA/min; in experiment [5] (ACE, TF 0.7510 mM), 0.0097 ΔA/min; in experiment [4] (TF 0.9387 mM) it was 25.89 FI/min; in experiment [4] (TF 3.7551 mM), 17.20 FI/min. Also, the “Mode of ACE inhibition” value in experiment [5] (Lineweaver-Burk plots) is given as “mixed-type”. The “Mode of renin inhibition” value in experiment [4] is listed as “non-competitive”.
On to AWLHPGAPKVF, for which, in experiment [8], the “Mode of ACE inhibition” value was “competitive”.
Take FEDYVPLSCF: in experiment [8], the “Mode of ACE inhibition” value is recorded as “mixed-type”.
On to FNVPLYE, for which, in experiment [8], the “Mode of ACE inhibition” value is given as “mixed-type”.
RMLGQTP: the “Mode of ACE inhibition” value in experiment [8] was “mixed-type”.
